How the values were obtained:
[1] = system: hUC-MSCs; assay: Oxidative stress resistance capacity (ORC) analysis in hUC-MSCs with RSL3; assay type: cell-based, human; conditions: hUC-MSCs; liproxstatin-1 0, 2.5, 5 or 10 μM; RSL3 0, 0.5 or 1 μM; the higher the concentration
Experimental: GRC refers to a value obtained by real-time monitoring of FR after living cells are treated with an oxidizing agent, as calculated by dividing a value obtained by subtracting AUC of a group treated with 0.1-100 mM N-ethylmaleimide (NEM) from FR AUC of an oxidizing agent (diamide, H2O2, etc.)-treated group by a value obtained by subtracting the AUC of NEM-treated group from AUC of the untreated control, and multiplying the resulting value by 100. The FR of the NEM-treated group is a value for increasing the sensitivity of a GRC value by treating it as the blank value of the FR of the cells of interest. […] To remove the MitoFreSH-Tracer from the medium before measurement, the medium was exchanged with fresh 10 mM HEPES-containing HBSS(Hanks' Balanced Salt Solution), and a fluorescence image was obtained using a confocal imaging system, Operetta. By comparing GSH levels quantified from control cells not treated with RSL3 or control cells before treated with RSL3, the distribution of GSH expression-changed cells was calculated. Based on the point where the distribution histogram is divided into two peaks, the cells were divided into GSH^High cells (right peak) and GSH^Low cells (left peak), and then a ratio of corresponding cells was expressed as a percentage (%). […]

[2] = system: hUC-MSCs; assay: CFU-F assay of hUC-MSCs; assay type: cell-based, human; conditions: n=3
Experimental: (§1) The inventors observed an effect of the material on stem cells by treating each stem cells with a material for enhancing a glutathione evaluation parameter. When hUC-MSCs were subcultured in a L-AA2G-containing medium, CFU-F, migration capacity, and an anti-inflammatory effect were observed. A CFU-F assay (n=3) was performed by treating hUC-MSCs with 125 or 250 μg/mL of AA2G for three days. As shown in FIGS. 16A and 16B, it was confirmed that, when AA2G was treated, CFU-F increased. In addition, as hUC-MSCs were treated with 125 or 250 μg/mL of AA2G for three days, PDGF-AA-induced migration capacity (n=3) was analyzed. As shown in FIGS. 17A and 17B, it was confirmed that the migration capacity was increased by AA2G treatment. In addition, the reduction in T cell proliferation, the reduction in T cell differentiation, and the promotion of Treg cell differentiation were observed by treating hUC-MSCs with 125 or 250 μg/mL of AA2G for three days. […] Meanwhile, hUC-MSCs were cultured with a glutathione precursor such as γ-glutamyl cysteine (GGC, 0.1, 0.25, and 0.5 mM). A CFU-F assay (n=3) was performed by treating hUC-MSCs with each concentration of GGC for 2 hours. […] In addition, SDF1α and PDGF-AA-induced migration capacities (n=3) were analyzed for hUC-MSCs without treatment with GGC, and SDF1α and PDGF-AA-induced migration abilities (n=3) were analyzed by treating hUC-MSCs with the increasing concentrations of GGC. STI571 was used as a PDGFR kinase inhibitor. As shown in FIGS. 20A to 20C, it was confirmed that, according to an increase in GGC treatment concentration, SDF1α- and PDGF-AA-induced migration capacities were enhanced. A CFU-F assay (n=3) was performed by treating hUC-MSCs with 0.2, 1, 2, and 4 μM ferrostatin-1 and 0.1, 0.5, 1, and 2 μM liproxstatin-1 for 24 hours.

[3] = system: T cells; assay: Anti-inflammatory effect of treated hUC-MSCs on T cells; assay type: cell-based; conditions: for anti-inflammatory effect of the hUC-MSCs: ferrostatin-1 1 μM 24 h, GGC 0.2 mM 2 h, FIGS. 27, 28A to 28C; for T cell differentiation capacity / T cell proliferation ability / Treg cell differentiation: hUC-MSCs treated with 1 μM ferrostatin-1 24 h, 0.2 mM GGC 2 h, 2 mM GSH-EE 2 h
Experimental: The inventors observed an effect of the material on stem cells by treating each stem cells with a material for enhancing a glutathione evaluation parameter. When hUC-MSCs were subcultured in a L-AA2G-containing medium, CFU-F, migration capacity, and an anti-inflammatory effect were observed. A CFU-F assay (n=3) was performed by treating hUC-MSCs with 125 or 250 μg/mL of AA2G for three days. As shown in FIGS. 16A and 16B, it was confirmed that, when AA2G was treated, CFU-F increased. In addition, as hUC-MSCs were treated with 125 or 250 μg/mL of AA2G for three days, PDGF-AA-induced migration capacity (n=3) was analyzed. As shown in FIGS. 17A and 17B, it was confirmed that the migration capacity was increased by AA2G treatment. In addition, the reduction in T cell proliferation, the reduction in T cell differentiation, and the promotion of Treg cell differentiation were observed by treating hUC-MSCs with 125 or 250 μg/mL of AA2G for three days.
In addition, hUC-MSCs were cultured with ferrostatin-1 (0.2, 1, 2 and 4 μM) and liproxstatin-1 (0.1, 0.5, 1 and 2 μM), which control a glutathione level in cells by inhibiting lipid oxidation. […] Meanwhile, the hUC-MSCs were treated with 1 μM ferrostatin-1 for 24 hours, 0.2 mM GGC for 2 hours, and 2 mM GSH-EE for 2 hours. As a result, the reduction in T cell proliferation ability and the reduction in T cell differentiation capacity were observed, and promotion of Treg cell differentiation was observed.

[4] = system: hES-MSCs; assay: CFU-F assay of FreSH-Tracer-sorted hES-MSCs; assay type: cell-based, human
Experimental: Main factors for determining the therapeutic efficacy of hBM-MSCs, namely a colony forming unit-fibroblast (CFU-F) and a graft survival rate, were evaluated in cell culture models.
In order to test whether direct control of a GSH level in stem cells leads to change in cell functions, hES-MSCs sorted by FreSH-Tracer were treated with buthionine sulfoximine (BSO; glutathione synthesis inhibitor) and glutathione ethyl ester (GSH-EE). When GSH was decreased in cells by treating GSH^High cells with BSO (80 μM, 24 h), it was confirmed that CFU-F increased, and on the other hand, when GSH was increased by treating GSH^Low cells with GSH-EE (1 mM, 2 h), it was confirmed that CFU-F decreased (FIG. 13A). In addition, it was confirmed that, when hES-MSCs which were not sorted by FreSH-Tracer were treated with BSO or GSH-EE, PDGF-AA-induced cell migration capacity was decreased or increased, respectively (FIG. 13B).

[5] = system: hUC-MSCs; assay: SDF1α- and PDGF-AA-induced migration capacity of hUC-MSCs; assay type: cell-based, human; conditions: increasing GGC treatment concentration (0.1, 0.25 mM), n=3
Experimental: as §1, with “mM).” for “mM). A CFU-F assay (n=3) was performed by treating hUC-MSCs with each concentration of GGC for 2 hours.”, “STI571 was used as a PDGFR kinase inhibitor. As shown in FIGS. 20A to 20C, it was confirmed that, according to an increase in GGC treatment concentration, SDF1α- and PDGF-AA-induced migration capacities were enhanced. A CFU-F assay (n=3) was performed by treating hUC-MSCs with 0.2, 1, 2, and 4 μM ferrostatin-1 and 0.1, 0.5, 1, and 2 μM liproxstatin-1 for 24 hours.” left out

Clc1cccc(CN=C2Nc3ccccc3NC23CCNCC3)c1 [liproxstatin-1]
ORC: ratio of the GSH^High cells [1]: increased | CFU-F ([2]; ferrostatin-1 0.2, 1, 2 and 4 μM, liproxstatin-1 0.1, 0.5, 1 and 2 μM, 24 hours): improved | anti-inflammatory effect of the hUC-MSCs [3]: did not alter

CCCCS(=N)(=O)CCC(N)C(=O)O (centres unmarked) [BSO, buthionine sulfoximine]
CFU-F ([4]; GSH^High hES-MSCs treated with BSO 80 μM, 24 h): increased

CCOC(=O)CNC(=O)[C@H](CS)NC(=O)CC[C@H](N)C(=O)O [GSH-EE, glutathione ethyl ester]
CFU-F ([4]; GSH^Low hES-MSCs treated with GSH-EE 1 mM, 2 h): decreased | T cell differentiation capacity [3]: reduction | T cell proliferation ability [3]: reduction | Treg cell differentiation [3]: promotion

N[C@@H](CCC(=O)N[C@@H](CS)C(=O)O)C(=O)O [GGC, γ-glutamyl cysteine]
CFU-F ([2]; GGC 0.1, 0.25 and 0.5 mM for 2 hours): increased | SDF1α- and PDGF-AA-induced migration capacities [5]: enhanced | anti-inflammatory effect of the hUC-MSCs [3]: no change | T cell differentiation capacity [3]: reduction | T cell proliferation ability [3]: reduction | Treg cell differentiation [3]: promotion

— patent publication US11499978B2, “Method for measuring quality of therapeutic cell through real-time glutathione measurement” (CELL2IN, INC., priority 2017, dated 2022)
